In ChEMBL document CHEMBL1201862, “PubChem BioAssay data set” (2004):
Values joined by “and” are separate entries in the source; they are usually repeats but may differ in a detail not shown here. Equal values may be shown once.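 Exposure lasted 48 hours, with cells grown in 96-well plates and compounds tested at five concentrations. At the GI50, growth is halved.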 Active and inactive are the calls of the source. Rule as the data show it: active = GI50 up to about 1.1 µM and inactive = higher.

Assays:
Assay in all cases: inhibition of tumour cell growth, NCI panel, 48 h
Malme-3M = test system: Malme-3M
U-251 = test system: U-251
SNB-19 = test system: SNB-19
OVCAR-3 = test system: OVCAR-3
786-0 = test system: 786-0
OVCAR-8 = test system: OVCAR-8
SNB-75 = test system: SNB-75
NCI-H460 = test system: NCI-H460
A549 = test system: A549
NCI-H23 = test system: NCI-H23
IGROV-1 = test system: IGROV-1
RPMI-8226 = test system: RPMI-8226
OVCAR-4 = test system: OVCAR-4
COLO 205 = test system: COLO 205
HT-29 = test system: HT-29
SF-295 = test system: SF-295
PC-3 = test system: PC-3
LOX IMVI = test system: LOX IMVI
HOP-92 = test system: HOP-92

Structure (SMILES)	GI50 (Malme-3M)	GI50 (U-251)	GI50 (SNB-19)	GI50 (OVCAR-3)	GI50 (786-0)	GI50 (OVCAR-8)	GI50 (SNB-75)	GI50 (NCI-H460)	GI50 (A549)	GI50 (NCI-H23)	GI50 (IGROV-1)	GI50 (RPMI-8226)	GI50 (OVCAR-4)	GI50 (COLO 205)	GI50 (HT-29)	GI50 (SF-295)	GI50 (PC-3)	GI50 (LOX IMVI)	GI50 (HOP-92)
S=C(Nc1c2c(nc3ccccc13)CCCC2)Nc1c2c(nc3ccccc13)CCCC2	> 100 µM (inactive)	> 100 µM (inactive)	> 100 µM (inactive)	> 100 µM (inactive)	> 100 µM (inactive)	> 100 µM (inactive)	> 100 µM (inactive)	> 100 µM (inactive)	> 100 µM (inactive)	> 100 µM (inactive)	> 100 µM (inactive)	> 100 µM (inactive)	> 100 µM (inactive)	> 100 µM (inactive)	> 100 µM (inactive)	> 100 µM (inactive)	> 100 µM (inactive)		
CCOc1ccc(N/C(=C(/C(Cl)=C(/Cl)NCCN)[N+](=O)[O-])n2nnc3ccccc32)cc1	14.5 µM (inactive)	35.8 µM (inactive)	> 100 µM (inactive)	13 µM (inactive)	31.8 µM (inactive)	15 µM (inactive)	46.8 µM (inactive)	> 100 µM (inactive)	> 100 µM (inactive)	32.5 µM (inactive)		30.9 µM (inactive)	30.6 µM (inactive)	15.6 µM (inactive)	33.3 µM (inactive)	70.5 µM (inactive)	28.8 µM (inactive)		
CNc1nc(N)nc(Nc2ccc(I)cc2)c1N=O	> 100 µM (inactive)		> 100 µM (inactive)	61 µM (inactive)	> 100 µM (inactive)	> 100 µM (inactive)	> 100 µM (inactive)	> 100 µM (inactive)	> 100 µM (inactive)	> 100 µM (inactive)	> 100 µM (inactive)	> 100 µM (inactive)		36.4 µM (inactive)	24 µM (inactive)	> 100 µM (inactive)	> 100 µM (inactive)	> 100 µM (inactive)	
CC(=O)OCC1OC(n2c(N)c(C#N)c(C)c(C#N)c2=S)C(OC(C)=O)C(OC(C)=O)C1OC(C)=O (stereo not drawn)	> 100 µM (inactive) and 78.5 µM (inactive)	> 100 µM (inactive)	> 100 µM (inactive)	> 100 µM (inactive)	> 100 µM (inactive)	> 100 µM (inactive)	> 100 µM (inactive)	> 100 µM (inactive)	> 100 µM (inactive)	> 100 µM (inactive)	> 100 µM (inactive)	> 100 µM (inactive)	> 100 µM (inactive)	> 100 µM (inactive)	> 100 µM (inactive)	> 100 µM (inactive)	> 100 µM (inactive)	> 100 µM (inactive)	
C=C(Br)CN(C(C)=O)C1CCCCC1	> 100 µM (inactive)	> 100 µM (inactive)	> 100 µM (inactive)	> 100 µM (inactive)	> 100 µM (inactive)	> 100 µM (inactive)	> 100 µM (inactive)	> 100 µM (inactive)	> 100 µM (inactive)	> 100 µM (inactive)	> 100 µM (inactive)	> 100 µM (inactive)	> 100 µM (inactive)	> 100 µM (inactive)	> 100 µM (inactive)	> 100 µM (inactive)	> 100 µM (inactive)	> 100 µM (inactive)	
CC(=O)O[C@H]1C(=O)[C@@]2(C)[C@H]([C@H](OC(=O)c3ccncc3)[C@]3(O)C[C@H](OC(=O)[C@H](O)[C@@H](NC(=O)c4ccccc4)c4ccccc4)C(C)=C1C3(C)C)[C@]1(OC(C)=O)CO[C@@H]1C[C@@H]2O	2.31 µM (inactive)	2.34 µM (inactive)	4.51 µM (inactive)	1.25 µM (inactive)	6.81 µM (inactive)	8.53 µM (inactive)	3.56 µM (inactive)	9.14 µM (inactive)	18 µM (inactive)	12.6 µM (inactive)	2.44 µM (inactive)	0.881 µM (active)	> 25 µM (inactive)	2.08 µM (inactive)	1.42 µM (inactive)	> 16.9 µM (inactive)	6.56 µM (inactive)	1.42 µM (inactive)	
O=C(CSCC(=O)N/N=C\c1ccccc1F)N/N=C\c1ccccc1F	> 100 µM (inactive)	67.3 µM (inactive)	> 100 µM (inactive)	27 µM (inactive)	> 100 µM (inactive)	49.9 µM (inactive)	> 100 µM (inactive)	99.5 µM (inactive)	> 100 µM (inactive)	> 100 µM (inactive)	> 100 µM (inactive)	36.3 µM (inactive)	> 100 µM (inactive)	> 100 µM (inactive)	> 100 µM (inactive)	41.7 µM (inactive)		> 100 µM (inactive)	> 100 µM (inactive)
C=CCN1C(=O)N/C(=C\c2ccc(Cl)cc2)C1=O	> 100 µM (inactive)	> 100 µM (inactive)	> 100 µM (inactive)	> 100 µM (inactive)	> 100 µM (inactive)	> 100 µM (inactive)	> 100 µM (inactive)	> 100 µM (inactive)	83.9 µM (inactive)	> 100 µM (inactive)	> 100 µM (inactive)	> 100 µM (inactive)	> 100 µM (inactive)	> 100 µM (inactive)	> 100 µM (inactive)	> 100 µM (inactive)		> 100 µM (inactive)	> 100 µM (inactive)
c1ccc(CCN2CCN=C2Cc2ccccc2)cc1	> 100 µM (inactive)	> 100 µM (inactive)	> 100 µM (inactive)	71.3 µM (inactive)	> 100 µM (inactive)	> 100 µM (inactive)	> 100 µM (inactive)	> 100 µM (inactive)	> 100 µM (inactive)	> 100 µM (inactive)	> 100 µM (inactive)	29 µM (inactive)	> 100 µM (inactive)	> 100 µM (inactive)	67.1 µM (inactive)	> 100 µM (inactive)		> 100 µM (inactive)	28.6 µM (inactive)
C1=CCC[C@@H]2CN3CCCC/C=C\CCCC[C@H]4C[C@H](CN(CCCCCCCC1)C4)[C@H]2CC3	9.33 µM (inactive)	8.51 µM (inactive)	10.9 µM (inactive)	8.07 µM (inactive)	8.67 µM (inactive)	9.55 µM (inactive)	8.95 µM (inactive)	9.75 µM (inactive)	9.2 µM (inactive)	13.2 µM (inactive)	10.2 µM (inactive)	8.11 µM (inactive)	12.2 µM (inactive)	8.28 µM (inactive)	10.9 µM (inactive)	9.27 µM (inactive)	12.8 µM (inactive)	8.59 µM (inactive)	
CCCCC(Sc1cc(Cl)c(C)cc1S(=O)(=O)Nc1nc(N)n[nH]1)C(=O)OC (stereo not drawn)	> 10 µM (inactive)	> 10 µM (inactive)	> 10 µM (inactive)	> 10 µM (inactive)	> 10 µM (inactive)	> 10 µM (inactive)	> 10 µM (inactive)	> 10 µM (inactive)	> 10 µM (inactive)	> 10 µM (inactive)	> 10 µM (inactive)	> 10 µM (inactive)	> 10 µM (inactive)	> 10 µM (inactive)	> 10 µM (inactive)	> 10 µM (inactive)	> 10 µM (inactive)	> 10 µM (inactive)	
